# Patent publication US7968558B2, “Amidine derivatives of 2-heteroaryl-quinazolines and quinolines; potent analgesics and anti-inflammatory agents” (Rottapharm S.p.A., priority 2006, dated 2011)
# Structures can show the parent of a compound that is named as a salt.
# Columns and labels:
# IL-6 production = IL-6 production in IL-1 stimulated human chondrosarcoma cell line; type: cell-based; settings: Compound concentration is 10 μM
# Text: (§1) The compounds of the invention have been found effective in interfering with cytokine production in several cell lines, representative examples of this effect are reported in Table 3, for two representative cytokines, in IL-1 stimulated human chondrosarcoma cell line.
# CFA-induced hyperalgesia = experiment: CFA model of chronic inflammatory pain; type: in vivo, rat
# COX-2 expression = experiment: IL-1β induced COX-2 expression in SW1353 human chondrosarcoma cell line; type: cell-based; settings: at 10 μM
# Text: (§2) Conversely, compounds of the invention are able to inhibit, at micromolar concentration, IL-1β induced PGE2 production in cellular systems. This inhibition effect on the production of the pro-inflammatory mediator PGE2, instead of to be ascribed to a direct COX-2 inhibition, as happens with Celecoxib and other COX-2 inhibitors, is in this case due to inhibition of cytokine induced COX-2 expression as proven in cellular systems.
# (§3) Effectiveness in inhibition of PGE2 production induced by IL-1β in chondrocyte cell culture, as well as inhibition in IL-1β induced COX-2 expression in SW1353 human chondrosarcoma cell line, is summarized in Table 2, for representative compounds of the invention.
# [1] = test system: acetic acid-induced abdominal writhes; experiment: Acetic acid-induced writhing test; type: in vivo, mice; settings: for MPE (%): 30 min. before acetic acid
# Protocol: With the aim of assessing whether the compounds of the invention are able to inhibit responses to peritoneal irritation-induced visceral pain, the acetic acid-induced writhing assay was used in mice to determine the degree of anti-nociception.
# The writhing test is a model of inflammatory pain that has long been used as a screening tool for evaluation of analgesic and anti-inflammatory agents (HDJ Collier, B. J. Pharmacol Chemother., 1968, 32, 295-310). The test was performed inducing nociception by an i.p. injection of acetic acid 1%, 0.1 mL/10 g of body weight. Mice were pre-treated (subcutaneously, s.c., three different doses: 3, 10, 30 mg/Kg) with the tested compounds 30 min. before acetic acid injection, while control animals received a similar volume of saline solution. A group of mice was treated with Paracetamol (200 mg/Kg, s.c.) as reference drug. The number of abdominal writhes (full extension of both hind paws) was cumulatively counted every 5 minutes over a period of 20 min. immediately after the acetic acid injection. The anti-nociceptive activity was expressed as inhibition of abdominal writhes as maximum percent effect (MPE), which represents the difference (%) in pain threshold between the animals treated with the drug and the ones that received only the vehicle.
# [2] = test system: mechanical hyperalgesia associated with STZ-induced diabetes; experiment: STZ-induced diabetes mechanical hyperalgesia (neuropathic pain); type: in vivo, rat
# Protocol: Streptozotocin (STZ)-induced diabetes in the rat has been increasingly used as a model of painful diabetic neuropathy to assess the efficacies of potential analgesic agents (C. Courteix, Pain 1993, 53, 81-8). The compounds of the invention were tested for efficacy in reducing mechanical hyperalgesia associated with STZ-induced diabetes in the rat, according to the experimental model as described by the literature. Diabetes was produced with the injection of a single dose (75 mg/Kg i.p.) of STZ. In the following four weeks after the induction of diabetes the clinical symptoms (weight, body and skin temperature, motility and hyperglycemia) progressively developed by the animals, are strictly monitored. After four weeks, the scores obtained in diabetic rats to various pain stimuli (in particular mechanical stimuli) were grater than those in normal rats, indicating hyperalgesia. The hyperalgesia induced by diabetes was evaluated using the Randall-Selitto method as above described, and quantitated using the analgesimeter. Also in this case, the difference in the mechanical pain threshold between the basal value (generally 230-250 g) and the one tolerated by the animals treated with the drug, is defined as mechanical hyperalgesia. The compounds of the invention were administered i.p. (solution, Tween 80, 10% in saline) at different doses, and mechanical hyperalgesia was measured at the reported time, as maximum percent effect (MPE) which represents the difference (%) in pain threshold between the animals treated with the drug and the controls that received only the vehicle, compared with the weight borne by naïf non-diabetic controls. A 100% protection means that the diabetic animals treated with the compound can tolerate the same stimulus (weight) as the naïf non-diabetic animals. MPE higher than 100% means that the diabetic animal treated with the compound can tolerate stimuli (weight) higher than the control non-diabetic animals (hypoalgesia).
# [3] = test system: Zymosan-induced mechanical hyperalgesia; experiment: Zymosan-induced mechanical hyperalgesia (Randall-Selitto); type: in vivo, rat
# Protocol: (§4) The interplantar injection of Zymosan-induced mechanical hyperalgesia was used as a model of inflammatory pain (Meller, Neuropharmacology, 1994, 33, 1471-1478). In this model, typically a male Sprague-Dawley or Wistar rat (200-250 g) receives an interplantar injection of 3 mg/100 μl zymosan into one hind paw. A marked inflammation occurs in this hind paw. Drugs are administered orally for evaluation of efficacy, 30 min. before the inflammatory insult. The hyperalgesia induced by zymosan administration was evaluated using the Randall-Selitto method (Arch. Int. Pharmacodyn., 1957, 111, 409). The quantitation of the analgesic effect is achieved by an analgesimeter, which consist in applying to the inflamed paw an increasing weight (from 130-140 g up to 500 g). The difference in the mechanical pain threshold between the basal value (generally 230-250 g) and the one tolerated by the animals treated with the drug, determined 4 hours after the inflammatory challenge, is defined as mechanical hyperalgesia.
# (§5) Mechanical hyperalgesia is expressed for the compounds of the invention as ED50, which is the dose of the administered compound able to increase the pain threshold by 50% in comparison with the group of control animals. The corresponding ED100, representing the dose able of reducing of 100% the pain threshold, can be calculated for those cases where there is a linear dose-response relationship. In vivo anti-inflammatory effect exerted by the compound of the invention can be assessed in the same Zymosan induced inflammation test described above, by measuring the volume of the oedema induced by the inflammatory agent. The oedema was evaluated as the increase in the volume of the Zymosan injected paw within a time of 0-2 hrs. The measurements of the variation of the oedema volume of the paw were recorded using hydroplethysmometer, which consists of two plastic cuvettes containing a surfactant liquid, the larger one being used for immersion of the paw, connected to the smaller one which contains a trans-ducer capable of recording small displacements of the volume used for the measure. The paw is immersed in the cuvettes up to the tibiotarsal joint. The volume of the liquid displaced is proportional to the extent of the inflammation. The efficacy of the compounds of the invention in preventing oedema formation is expressed as ED30, and is measured 2 hours after the inflammatory challenge, and represents the dose able of reducing of 30%, the Zymosan induced paw volume increase in comparison to control animals (animals treated with Zymosan but treated with only distilled water instead of the testing compound). The corresponding ED50, representing the dose able of reducing of 50% the zymosan induced paw volume increase, can be calculated for those cases where there is a linear dose-response relationship.
# (§6) In both the experiments, for each test compound, at least three doses were used, with 10 animals per group. Compounds of the invention were tested at 10, 20 and 40 mg/Kg.
# [4] = test system: Zymosan induced paw volume increase; experiment: Zymosan-induced paw oedema; type: in vivo, rat
# Protocol: as §4, §5, §6
# IL-1 production = IL-1 production in IL-1 stimulated human chondrosarcoma cell line; type: cell-based; settings: Compound concentration is 10 μM
# Text: as §1
# [5] = test system: IL-1β induced PGE2 production; experiment: PGE2 production induced by IL-1β in chondrocyte cell culture; type: cell-based, rabbit; settings: at 10 μM
# Text: as §2, §3
compound,measurement,setting,value
"CC(=N)Nc1ccc2nc(-c3ccc4c(c3)OCO4)ccc2c1 [Example 2, N-[2-(1,3-benzodioxol-5-yl)quinolin-6-yl]acetamidine dihydrochloride]",Inhibition (%) of IL-6 production,IL-6 production,78%
same,MPE 0.5 hrs.,CFA-induced hyperalgesia; 3 mg/Kg i.p.,36%
same,MPE 1.5 hrs.,CFA-induced hyperalgesia; 3 mg/Kg i.p.,40%
same,MPE 3 hrs.,CFA-induced hyperalgesia; 3 mg/Kg i.p.,7%
same,MPE 0.5 hrs.,CFA-induced hyperalgesia; 10 mg/Kg i.p.,94%
same,MPE 1.5 hrs.,CFA-induced hyperalgesia; 10 mg/Kg i.p.,34%
same,MPE 3 hrs.,CFA-induced hyperalgesia; 10 mg/Kg i.p.,11%
same,MPE 24 hrs.,CFA-induced hyperalgesia; 10 mg/Kg i.p.,13%
same,MPE 0.5 hrs.,CFA-induced hyperalgesia; 30 mg/Kg i.p.,188%
same,MPE 1.5 hrs.,CFA-induced hyperalgesia; 30 mg/Kg i.p.,81%
same,MPE 3 hrs.,CFA-induced hyperalgesia; 30 mg/Kg i.p.,34%
same,MPE 24 hrs.,CFA-induced hyperalgesia; 30 mg/Kg i.p.,9%
same,"Inhibition of COX-2 expression in SW1353 human chondrosarcoma cell line, % at 10 μM",COX-2 expression,59% at 10 μM
same,MPE (%),[1]; 3 mg/Kg s.c.,59%
same,MPE (%),[1]; 10 mg/Kg s.c.,61%
same,MPE (%),[1]; 30 mg/Kg s.c.,57%
same,ED50,"[1]; Mus musculus, sc",< 3 mg/kg
same,MPE 0.5 hrs.,[2]; 3 mg/Kg i.p.,32%
same,MPE 1.5 hrs.,[2]; 3 mg/Kg i.p.,75%
same,MPE 3 hrs.,[2]; 3 mg/Kg i.p.,8%
same,MPE 0.5 hrs.,[2]; 10 mg/Kg i.p.,76%
same,MPE 1.5 hrs.,[2]; 10 mg/Kg i.p.,107%
same,MPE 3 hrs.,[2]; 10 mg/Kg i.p.,13%
same,MPE 0.5 hrs.,[2]; 30 mg/Kg i.p.,151%
same,MPE 1.5 hrs.,[2]; 30 mg/Kg i.p.,124%
same,MPE 3 hrs.,[2]; 30 mg/Kg i.p.,93%
same,ED50,"[3]; Rattus norvegicus, read-out: Analgesia ED50",10.7 mg/kg
same,Analgesia ED100,"[3]; oral, calculated from linear dose-response",22 mg/kg
same,ED50,"[4]; Rattus norvegicus, po, read-out: Oedema Reduction ED50",98 mg/kg
same,Oedema Reduction ED30,"[4]; oral, 2 hours after challenge",15.0 mg/kg
same,Inhibition (%) of IL-1 production,IL-1 production,45%
same,"Effects on PGE2 production in rabbit Chondrocyte culture, % at 10 μM",[5],70% at 10 μM
